Consider 35 compounds from PubChem BioAssay AID651650 (Sanford-Burnham Center for Chemical Genomics, 2012).

For the test, the target named is Neuropilin-1 (Homo sapiens) (UniProt O14786). Put plainly: blockers of CendR peptide binding to NRP-1 – biochemical, FP and AlphaScreen panel, dose response (AID 651650). Conditions: NRP-1 b1b2 / RPARPAR peptide binding, FP or AlphaScreen. (Alpha assays give light when donor and acceptor beads are brought close together.)
Setting [1] is: AlphaScreen, run 1, individual panel run IC50.
Where [2] appears, read: FP, run 1, individual panel run IC50.
Setting [3] is: FP, run 2, individual panel run IC50.

Active and inactive are the calls of the source.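 Rule for the calls: active = mean IC50 below 20 µM in each of the two panels, so potent in both; inactive = the rest.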

Neuropilin-1 (Homo sapiens), sequence (O14786 whole entry, looked up): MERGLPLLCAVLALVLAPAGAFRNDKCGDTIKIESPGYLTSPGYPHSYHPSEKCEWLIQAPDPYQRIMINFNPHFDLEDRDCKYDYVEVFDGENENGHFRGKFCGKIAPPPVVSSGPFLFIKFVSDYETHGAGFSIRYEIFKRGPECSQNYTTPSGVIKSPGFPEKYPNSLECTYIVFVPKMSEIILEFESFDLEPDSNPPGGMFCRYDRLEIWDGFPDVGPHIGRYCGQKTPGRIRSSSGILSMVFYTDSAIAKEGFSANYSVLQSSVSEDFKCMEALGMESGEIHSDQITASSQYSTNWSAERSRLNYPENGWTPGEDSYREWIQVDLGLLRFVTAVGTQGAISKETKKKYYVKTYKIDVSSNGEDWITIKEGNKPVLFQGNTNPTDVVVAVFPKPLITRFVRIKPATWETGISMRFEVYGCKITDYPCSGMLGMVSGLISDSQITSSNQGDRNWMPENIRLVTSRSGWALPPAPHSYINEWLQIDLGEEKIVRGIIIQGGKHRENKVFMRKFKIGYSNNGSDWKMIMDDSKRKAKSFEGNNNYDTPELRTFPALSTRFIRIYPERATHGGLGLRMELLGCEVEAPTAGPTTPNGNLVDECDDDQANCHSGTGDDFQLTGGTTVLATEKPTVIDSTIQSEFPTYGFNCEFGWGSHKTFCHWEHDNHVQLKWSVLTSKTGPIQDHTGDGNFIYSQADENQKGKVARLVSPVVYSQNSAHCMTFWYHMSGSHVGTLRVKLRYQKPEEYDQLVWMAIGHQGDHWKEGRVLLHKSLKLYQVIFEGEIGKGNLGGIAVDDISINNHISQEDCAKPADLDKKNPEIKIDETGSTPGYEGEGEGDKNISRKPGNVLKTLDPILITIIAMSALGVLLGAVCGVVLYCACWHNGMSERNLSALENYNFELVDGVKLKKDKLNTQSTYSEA

For the compound `O=C(O)c1ccc(C(=O)Nc2cccc3ccccc23)c(C(=O)O)c1`, the IC50 (in general, the concentration that gives 50% inhibition) (AlphaScreen, mean of runs) is “inactive”. Also, the IC50 is, setting by setting: under setting [1], 49.3 µM; (FP, mean of runs) > 95 µM (inactive); under setting [2], > 95 µM; under setting [3], > 95 µM.

Regarding `CN(Cc1cnn(C)c1)C(=O)c1cc2ccccc2oc1=O`, the IC50 reads like this: (AlphaScreen, mean of runs) > 100 µM (inactive); under setting [1], > 100 µM; (FP, mean of runs) > 95 µM (inactive); under setting [2], > 95 µM; under setting [3], > 95 µM.

Consider `O=C(NNC(=O)c1ccccc1Cl)c1cccnc1`, for which the half-maximal inhibitory concentration (IC50) was 19.2 µM (AlphaScreen, mean of runs); 19.2 µM under setting [1]; > 95 µM (inactive) (FP, mean of runs); > 95 µM under setting [2]; > 95 µM under setting [3].

With `CC(=O)c1ccc(OCC(=O)Nc2nnc(C3CC3)s2)cc1`, the IC50 was > 100 µM (inactive) (AlphaScreen, mean of runs); > 100 µM under setting [1]; > 95 µM (inactive) (FP, mean of runs); > 95 µM under setting [2]; > 95 µM under setting [3].

Regarding `COC(=O)Cc1ccc(NC(=S)NCCCO)cc1`, the IC50 (AlphaScreen, mean of runs) is > 100 µM (inactive); the half-maximal inhibitory concentration (IC50) under setting [1] is > 100 µM; the IC50 (FP, mean of runs) is > 95 µM (inactive); the 50% inhibitory concentration (IC50) under setting [2] is > 95 µM; the concentration for half-maximal inhibition (IC50) under setting [3] was > 95 µM.

Take `CCOC(=O)c1cnc(-c2ccccc2)nc1Oc1ccc(OC)cc1`: the 50% inhibitory concentration (IC50) (AlphaScreen, mean of runs) was 10.4 µM; the IC50 under setting [1] was found to be 10.4 µM; the 50% inhibitory concentration (IC50) (FP, mean of runs) is 19.9 µM; the IC50 under setting [2] was determined as 17.9 µM; the IC50 under setting [3] is 21.8 µM.

On to `CC(C)(C)OC(=O)N1CCN(C(=O)c2[nH]cnc2C(=O)NCc2ccccc2)CC1`, for which the IC50 (AlphaScreen, mean of runs) was > 100 µM (inactive); the concentration for half-maximal inhibition (IC50) under setting [1] was > 100 µM; the IC50 (FP, mean of runs) was > 95 µM (inactive); the IC50 under setting [2] is > 95 µM; the half-maximal inhibitory concentration (IC50) under setting [3] was > 95 µM.

Turning to `Nc1ccc(C(=O)Nc2ccc(Nc3ccncc3)cc2)c([N+](=O)[O-])c1`, the IC50 was 2.27 µM (AlphaScreen, mean of runs); 2.27 µM under setting [1]; > 95 µM (inactive) (FP, mean of runs); > 95 µM under setting [2]; > 95 µM under setting [3].

On to `O=C(O)C1CCN(C(=O)c2ccc(Cl)cc2)CC1`, for which the IC50 (AlphaScreen, mean of runs) was > 100 µM (inactive); the IC50 under setting [1] is > 100 µM; the IC50 (FP, mean of runs) is > 95 µM (inactive); the IC50 under setting [2] was > 95 µM; the half-inhibitory concentration (IC50) under setting [3] was > 95 µM.

`CCOC(=O)CNc1ccc2c(c1)OCO2`: the IC50 entry (AlphaScreen, mean of runs) is “inactive” and the IC50 entry (FP, mean of runs) was “inactive”. Besides, the half-inhibitory concentration (IC50) is 27.8 µM under setting [1], > 95 µM under setting [2] and 38.7 µM under setting [3].

Consider `COc1ccc(Cl)cc1S(=O)(=O)N1CCN(CC(=O)C(C)(C)C)CC1`, for which the IC50 by setting is: (AlphaScreen, mean of runs) > 100 µM (inactive); under setting [1], > 100 µM; (FP, mean of runs) > 95 µM (inactive); under setting [2], > 95 µM; under setting [3], > 95 µM.

In the case of `O=C(O)c1cc(NCc2ccc(F)cc2)ccc1N1CCOCC1`, the IC50 (AlphaScreen, mean of runs) was > 100 µM (inactive); the IC50 under setting [1] was > 100 µM; the IC50 (FP, mean of runs) is > 95 µM (inactive); the IC50 under setting [2] was > 95 µM; the half-inhibitory concentration (IC50) under setting [3] is > 95 µM.

Consider `CCN(CC(=O)NCc1cccs1)S(=O)(=O)c1ccc(C(C)C)cc1`, for which the IC50 was > 100 µM (inactive) (AlphaScreen, mean of runs); > 100 µM under setting [1]; > 95 µM (inactive) (FP, mean of runs); > 95 µM under setting [2]; > 95 µM under setting [3].

Consider `CCOC(=O)C1CCN(Cc2ccc3ccccc3c2)CC1`, for which the IC50 is > 100 µM (inactive) (AlphaScreen, mean of runs); > 100 µM under setting [1]; > 95 µM (inactive) (FP, mean of runs); > 95 µM under setting [2]; > 95 µM under setting [3].

In the case of `C#CCCOC(=O)N1C2=NC(C(=O)OC)=C(C(=O)OC)[C@@H]3N(C)c4ccccc4[C@]23C[C@H]1CO`, the half-maximal inhibitory concentration (IC50) is 9.53 µM (AlphaScreen, mean of runs); 9.53 µM under setting [1]; > 95 µM (inactive) (FP, mean of runs); > 95 µM under setting [2]; > 95 µM under setting [3].

On to `C=C1CCN([C@@H](CC(C)C)C(=O)NCCC(C)C)S(=O)(=O)c2ccccc21`, for which the IC50 is > 100 µM (inactive) (AlphaScreen, mean of runs); > 100 µM under setting [1]; > 95 µM (inactive) (FP, mean of runs); > 95 µM under setting [2]; > 95 µM under setting [3].

Consider `CCC1C2Cc3ccc(O)cc3C1(CC)CCN2C` (stereo not given), for which the IC50 is, setting by setting: (AlphaScreen, mean of runs) > 100 µM (inactive); under setting [1], > 100 µM; (FP, mean of runs) > 95 µM (inactive); under setting [2], > 95 µM; under setting [3], > 95 µM.

Turning to `CN(C)Cc1cc(C(F)(F)F)ccc1C(O)(c1ccccc1)c1ccccc1`, the IC50 was > 100 µM (inactive) (AlphaScreen, mean of runs); > 100 µM under setting [1]; > 95 µM (inactive) (FP, mean of runs); > 95 µM under setting [2]; > 95 µM under setting [3].

On to `NC(=O)C1CCN(c2nc(-c3ccc4occc(=O)c4c3)cs2)CC1`, for which the IC50 was > 100 µM (inactive) (AlphaScreen, mean of runs); > 100 µM under setting [1]; > 95 µM (inactive) (FP, mean of runs); > 95 µM under setting [2]; > 95 µM under setting [3].

On to `NC(=O)C1CCCN(C(=O)c2ccc3nc(Cc4cccc(Cl)c4)oc3c2)C1` (stereo not given), for which the IC50 reads like this: (AlphaScreen, mean of runs) 10.7 µM; under setting [1], 10.7 µM; (FP, mean of runs) > 95 µM (inactive); under setting [2], > 95 µM; under setting [3], > 95 µM.

Regarding `CC(=O)Nc1ccc(NC(=O)C2CC(=O)N(c3ccc(Cl)cc3)C2)cc1` (stereo not given), the 50% inhibitory concentration (IC50) (AlphaScreen, mean of runs) is 17.9 µM; the IC50 under setting [1] was determined as 17.9 µM; the IC50 (FP, mean of runs) is > 95 µM (inactive); the IC50 under setting [2] is > 95 µM; the IC50 under setting [3] is > 95 µM.

As to `CCCc1c(C)nc(N2CCN(c3ccccc3OC)CC2)[nH]c1=O`, the IC50 runs as follows: (AlphaScreen, mean of runs) > 100 µM (inactive); under setting [1], > 100 µM; (FP, mean of runs) > 95 µM (inactive); under setting [2], > 95 µM; under setting [3], > 95 µM.

`c1ccc2c3n(nc2c1)CCCO3`: the IC50 is > 100 µM (inactive) (AlphaScreen, mean of runs); > 100 µM under setting [1]; > 95 µM (inactive) (FP, mean of runs); > 95 µM under setting [2]; > 95 µM under setting [3].

`CN1C[C@H](CO)C=C2c3cccc4[nH]cc(c34)C[C@H]21`: the IC50 is 14.4 µM (AlphaScreen, mean of runs); 14.4 µM under setting [1]; > 95 µM (inactive) (FP, mean of runs); > 95 µM under setting [2]; > 95 µM under setting [3].

For the compound `C=CCN1C(=O)C2(C(C(=O)OCC)=C(N)Oc3ccccc32)c2c1c1ccccc1oc2=O` (stereo not given), the IC50 is > 100 µM (inactive) (AlphaScreen, mean of runs); > 100 µM under setting [1]; > 95 µM (inactive) (FP, mean of runs); > 95 µM under setting [2]; > 95 µM under setting [3].

Turning to `COC(=O)[C@@]1(Cc2ccc(OC)cc2)[C@H]2c3cc(C(=O)N4CCCC4)n(CCN4CCOCC4)c3C[C@H]2CN1C(=O)c1ccccc1`, the IC50 (AlphaScreen, mean of runs) is > 100 µM (inactive); the IC50 under setting [1] was > 100 µM; the IC50 (FP, mean of runs) is > 95 µM (inactive); the concentration for half-maximal inhibition (IC50) under setting [2] was > 95 µM; the IC50 under setting [3] was > 95 µM.

`Cc1cc(NC(=O)CCC(=O)NNC(=O)c2ccc(C(C)(C)C)cc2)no1`: the half-inhibitory concentration (IC50) (AlphaScreen, mean of runs) was 8.63 µM; the IC50 under setting [1] stood at 8.63 µM; the IC50 (FP, mean of runs) is > 95 µM (inactive); the half-maximal inhibitory concentration (IC50) under setting [2] is > 95 µM; the 50% inhibitory concentration (IC50) under setting [3] was > 95 µM.

On to `COc1c2ccc(C(=O)NCc3cc(C(F)(F)F)cc(C(F)(F)F)c3)cc2nn1C`, for which the IC50 was > 100 µM (inactive) (AlphaScreen, mean of runs); > 100 µM under setting [1]; > 95 µM (inactive) (FP, mean of runs); > 95 µM under setting [2]; > 95 µM under setting [3].

In the case of `O=C(Nc1ccc(N2CCOCC2)cc1)c1cc(-n2cnnc2)ccc1Cl`, the IC50 is, setting by setting: (AlphaScreen, mean of runs) > 100 µM (inactive); under setting [1], > 100 µM; (FP, mean of runs) > 95 µM (inactive); under setting [2], > 95 µM; under setting [3], > 95 µM.

Turning to `COc1ccc(N(CC(=O)NCc2ccco2)C(=O)CCC(=O)Nc2ccccn2)cc1`, the IC50 is > 100 µM (inactive) (AlphaScreen, mean of runs); > 100 µM under setting [1]; > 95 µM (inactive) (FP, mean of runs); > 95 µM under setting [2]; > 95 µM under setting [3].

For `CC(C)(C)OC(=O)NCc1ccc(CNC(=O)c2nc[nH]c2C(=O)N2CCN(C(=O)OC(C)(C)C)CC2)cc1`, the IC50 by setting is: (AlphaScreen, mean of runs) > 100 µM (inactive); under setting [1], > 100 µM; (FP, mean of runs) > 95 µM (inactive); under setting [2], > 95 µM; under setting [3], > 95 µM.

For `COc1cc(C(=O)OCC(=O)Nc2c(F)c(F)c(F)c(F)c2F)cc(OC)c1OC`, the IC50 (AlphaScreen, mean of runs) was > 100 µM (inactive); the half-inhibitory concentration (IC50) under setting [1] was > 100 µM; the IC50 (FP, mean of runs) is > 95 µM (inactive); the IC50 under setting [2] was > 95 µM; the IC50 under setting [3] was > 95 µM.

Take `CCOC(=O)Cc1cnc(NC(=O)NC(C(=O)OCC)(c2ccccc2)C(F)(F)F)s1` (stereo not given): for the setting “AlphaScreen, mean of runs”, the IC50 entry was “inactive”. For the same compound, the IC50 was 25.1 µM under setting [1]; > 95 µM (inactive) (FP, mean of runs); > 95 µM under setting [2]; > 95 µM under setting [3].

Turning to `CCOC(=O)C(NC(=O)CC(C)C)(Nc1sc(C)c(CC)c1C#N)C(F)(F)F` (stereo not given), the IC50 is, setting by setting: (AlphaScreen, mean of runs) > 100 µM (inactive); under setting [1], > 100 µM; (FP, mean of runs) > 95 µM (inactive); under setting [2], > 95 µM; under setting [3], > 95 µM.

In the case of `O=c1oc(Nc2ccccc2F)nc2ccccc12`, the IC50 is > 100 µM (inactive) (AlphaScreen, mean of runs); > 100 µM under setting [1]; > 95 µM (inactive) (FP, mean of runs); > 95 µM under setting [2]; > 95 µM under setting [3].
